Data on five compounds can be found in patent US12589082B2, “Compositions comprising thymoquinone and additional biologically active compounds” (N.S. OILS LTD., priority 2019, dated 2026).

For the assay, the system named is NO production by LPS-stimulated cultured murine macrophages. Briefly: Inhibition of NO production (Griess nitrite assay) in LPS-stimulated cultured murine macrophages. In kind it is cell-based, murine (ICR mice peritoneal macrophages; RAW264.7). The settings on record: for inhibition at 0.269 µg/mL: beta-carotene alone at 0.269 μg/ml. How it is done:
The aim of this study was to investigate the effect of different combinations of NS oil and carotenoids on the in vitro production of the inflammatory mediator NO by LPS-stimulated cultured murine macrophages.
Macrophage isolation and cell culture—Peritoneal macrophages were collected from the peritoneal cavity of 6-8 week old male ICR mice (Harlan, Israel) that had been given an intraperitoneal injection of 1.5 ml of thioglycollate broth (4%) 4 days before harvest. […] Peritoneal macrophages and murine macrophage cell line RAW264.7 were cultured RPMI 1640 medium containing 10% FCS, 2 mM L-glutamine; 100 U/ml penicillin; 100 μg/ml streptomycin (Beit-Haemek, Israel) in 96-well plates (1×10^6 cells/well) at 37° C. in 5% CO2 atmosphere. Cells were stimulated with LPS (0.1-1 μg/ml) in the presence or absence of NS oil acid and/or one or more of the following carotenoids: astaxanthin, lutein and beta-Carotene. The following stock solutions of each active agent were used to prepare the various dilutions tested: • Cold-pressed NS oil containing 3% thymoquinone and 1.7% free fatty acids (N.S. Oils, Israel). • Lutein 20% (Lycored Ltd., Israel) • Beta-carotene 30% in vegetable oil (Lycored Ltd., Israel) • Astaxanthin oleoresin extracted from microalgae, containing 10% astaxanthin (Algatech, Israel). • Lycopene (present at a concentration of 6.35% in the commercially-available product known as Lyc-O-Mato, obtained from Lycored Ltd., Israel).
The carotenoids were dissolved in DMSO (to a final concentration of 5 mM). The mixture was vortexed and incubated in a water bath at 37° C. (with shaking) for 10 min and then sonicated in a sonicator bath three times for 15 seconds each time. Using this stock solution, the desired concentrations were prepared by the addition of appropriate volumes thereof to warm culture medium.
Appropriate volumes of DMSO (0.1-0.2%) were added to the control tubes and the percent inhibition of NO production in each test tube was calculated in relation to its control.
NO production assay—NO levels in supernatants of cell cultures were determined by assaying nitrite levels using Griess reagent and sodium nitrite as a standard as described in Green, L. C., Wagner, D. A., Glogowski, J., Skipper, P. L., Wishnok, J. S., and Tannenbaum, S. R. (1982) Anal Biochem. 126: 131-138. […]

Bounds are passed on as bounds.

Broadly, the inhibition is the change of the read-out against control, counted positive when it falls. Regarding `CC1=C(/C=C/C(C)=C/C=C/C(C)=C/C=C/C=C(C)/C=C/C=C(C)/C=C/C2=C(C)C(=O)[C@@H](O)CC2(C)C)C(C)(C)C[C@H](O)C1=O` [astaxanthin], for the setting “Example 1 first study, FIG. 1, astaxanthin alone at 0.298 and 0.596 μg/ml, % of maximal inhibition”, the “inhibition of NO production” value is 20-25%. The inhibition at 0.298 µg/mL by setting is: (Mus musculus, Macrophage, Example 4, text summary, astaxanthin only, 0.298 μg/ml) ~20%; (Mus musculus, Macrophage, Example 4 comparative, column 0.0015 μg/ml TQ of high-FFA NS oil dilution, astaxanthin 0.298 μg/ml, agent alone or combined as labelled) 19.1%; (Mus musculus, Macrophage, Example 4 comparative, column 0.0030 μg/ml TQ of high-FFA NS oil dilution, astaxanthin 0.298 μg/ml, agent alone or combined as labelled) 21.3%; (Mus musculus, Macrophage, second study, FIG. 4, astaxanthin alone at 0.298 μg/ml) 19.1%.
For the compound `CC(C)=CCC/C(C)=C/C=C/C(C)=C/C=C/C(C)=C/C=C/C=C(C)/C=C/C=C(C)/C=C/C=C(\C)CCC=C(C)C` [lycopene], the inhibition at 0.35 µg/mL (Mus musculus, Macrophage, second study, FIG. 7, lycopene alone at 0.35 μg/ml) turned out to be 13.5%.
On to `C=C(C)[C@@H]1CCC(C)=C[C@H]1c1c(O)cc(CCCCC)cc1O` [CBD, cannabidiol], for which the “inhibition of NO production” value runs as follows: (Example 2 first study, FIG. 8, CBD alone at 0.0075 μg/ml) “did not results in a detectable level of NO inhibition”; (Example 2 second study, FIG. 9 upper, CBD alone at 0.005 μg/ml) “measurable inhibition of NO production”. Besides, the inhibition at 0.01 µg/mL (Mus musculus, Macrophage, read-out: inhibition of NO production) is < 10%.
`CC1=C(/C=C/C(C)=C/C=C/C(C)=C/C=C/C=C(C)/C=C/C=C(C)/C=C/C2=C(C)CCCC2(C)C)C(C)(C)CCC1` [beta-carotene]: the inhibition at 0.269 µg/mL is, setting by setting: (Mus musculus, Macrophage, first study, FIG. 3) < 10%; (Mus musculus, Macrophage, second study, FIG. 6) 3.89%. Moreover, the inhibition at 0.538 µg/mL (Mus musculus, Macrophage, first study, FIG. 3, beta-carotene alone at 0.538 μg/ml) is < 20%.
In the case of `CC1=C[C@H](O)CC(C)(C)[C@H]1/C=C/C(C)=C/C=C/C(C)=C/C=C/C=C(C)/C=C/C=C(C)/C=C/C1=C(C)C[C@@H](O)CC1(C)C` [lutein], the inhibition at 0.284 µg/mL (Mus musculus, Macrophage, second study, FIG. 5, lutein alone at 0.284 μg/ml) came to 6.96%. For the same compound, the “inhibition of NO production” value (first study, FIG. 2, lutein alone at 0.284 μg/ml) is listed as “did not cause any measurable degree of NO inhibition”.
